Measured values reported in patent US20090281127A1, “Organic Compounds” (priority 2006, published 2009).
Counter-ions that a name gives are not always drawn.

biological target: adenosine A2a receptor (Homo sapiens, UniProt P29274); assay: adenosine A2a receptor agonist method of Murphree et al (Ki); assay type: binding; conditions: method described by L. J. Murphree et al, Molecular Pharmacology 61, 455-462 (2002)
Procedure: Compounds of formula I and their pharmaceutically acceptable salts are useful as pharmaceuticals. In particular, they activate the adenosine A2a receptor activation, i.e. they act as A2a receptor agonists.
Compounds of the Examples hereinbelow have K; values below 1.0 μM in the above method. For example, the compounds of Examples 6, 10 and 15 have Ki values of 0.004, 0.005, and 0.009 μM respectively.

Chain of adenosine A2a receptor (P29274 whole entry): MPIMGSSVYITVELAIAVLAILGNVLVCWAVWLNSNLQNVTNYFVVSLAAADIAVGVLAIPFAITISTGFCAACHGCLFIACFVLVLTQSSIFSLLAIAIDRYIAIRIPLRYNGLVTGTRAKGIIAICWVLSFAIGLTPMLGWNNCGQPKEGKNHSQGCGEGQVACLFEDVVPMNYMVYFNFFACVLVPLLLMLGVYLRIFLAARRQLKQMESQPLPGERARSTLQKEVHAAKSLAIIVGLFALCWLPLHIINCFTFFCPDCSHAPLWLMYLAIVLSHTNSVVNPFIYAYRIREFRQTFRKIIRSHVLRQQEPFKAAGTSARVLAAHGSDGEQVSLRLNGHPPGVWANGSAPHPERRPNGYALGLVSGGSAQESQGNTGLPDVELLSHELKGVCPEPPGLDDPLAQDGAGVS

`O=C(N[C@H]1C[C@@H](n2cnc3c(NCC(c4ccccc4)c4ccccc4)nc(N[C@H]4CCNC4)nc32)[C@H](O)[C@@H]1O)C1CCC1` [Example 6, Cyclobutanecarboxylic acid {(1S,2R,3S,4R)-4-[6-(2,2-diphenyl-ethylamino)-2-((S)-pyrrolidin-3-ylamino)-purin-9-yl]-2,3-dihydroxy-cyclopentyl}-amide hydrochloride] and `O=C(Nc1cccnc1)NC1CCN(c2nc(NCC(c3ccccc3)c3ccccc3)c3ncn(C4CC(NC(=O)C5CCC5)C(O)C4O)c3n2)C1` [Example 10, Cyclobutanecarboxylic acid ((1S,2R,3S,4R)-4-{6-(2,2-diphenyl-ethylamino)-2-[(R)-3-(3-pyridin-3-yl-ureido)-pyrrolidin-1-yl]-purin-9-y}-2,3-dihydroxy-cyclopentyl)-amide] are within 1.5-fold of each other in Ki: 4 nM for the first, 5 nM for the second.

`O=C(N[C@H]1C[C@@H](n2cnc3c(NCC(c4ccccc4)c4ccccc4)nc(N[C@@H]4CCN(C(=O)NC5CCN(c6ccccn6)CC5)C4)nc32)[C@H](O)[C@@H]1O)C1CCC1` [Example 15, (R)-3-[9-[(1R,2S,3R,4S)-4-(cyclobutanecarbonyl-amino)-2,3-dihydroxy-cyclopentyl]-6-(2,2-diphenyl-ethylamino)-9H-purin-2-ylamino]-pyrrolidine-1-carboxylic acid (3,4,5,6-tetrahydro-2H-[1,2′]bipyridinyl-4-yl)-amide trifluoroacetate] gave a Ki of 9 nM.
